We go through seven molecules from PMC3530466, “Recombinant Expression of Margatoxin and Agitoxin-2 in Pichia pastoris: An Efficient Method for Production of KV1.3 Channel Blockers” (PLoS ONE, 2012).

In assay [1] the target is T1, mouse KV1.1 (mKV1.1) channels stably expressed in L929 cells (Mus musculus, UniProt P16388).
T1 construct: expressed in transfected cells
In words: Inhibition of mKV1.1 currents, whole-cell patch clamp. Conditions: room temperature, 200-ms pulses from -80 mV to 40 mV every 30 s, Hill fit to reduction of peak current at 40 mV, each data point mean of 3–5 determinations. It is filed as cell-based. On the procedure: (§1) L929 mouse fibroblast cells stably expressing mouse KV1.1 or mouse KV1.3 channels were kind gifts from Dr. George Chandy (University of California, Irvine). The cells were maintained in DMEM medium (Invitrogen, Carlsbad, CA, USA) supplemented with 10 IU/ml penicillin, 0.1 mg/ml streptomycin, 2 mM L-glutamine, 10% heat-inactivated fetal bovine serum, and 0.5 mg/ml G418 (EMD Chemicals, Gibbstown, NJ, USA). Freshly prepared buffy coats were purchased from the Gulf Coast Regional Blood Center (Houston, TX, USA) under a Baylor College of Medicine Institutional Review Board-approved protocol. Mononuclear cells were isolated from the buffy coats using Histopaque-1077 gradients (Sigma, St Louis, MI, USA) and used immediately or stored frozen in liquid nitrogen.
(§2) Experiments were conducted at room temperature using the whole-cell patch-clamp technique, as described previously. […] The bath solution contained (in mM): 160 NaCl, 4.5 KCl, 2 CaCl2, 1 MgCl2, 10 HEPES, pH 7.2, 300 mOsm. KV channel currents were elicited every 30 s by 200-ms depolarizing pulses from a holding potential of –80 mV to 40 mV. K d values and Hill coefficients were determined by fitting the Hill equation to the reduction of peak current measured at 40 mV.

Another assay deals with human T lymphocytes. Briefly: Proliferation of T lymphocytes, [3H] thymidine incorporation. It is filed as cell-based. Conditions: freshly-isolated human T lymphocytes, 60 ng/ml anti-CD3 antibody (OKT3), pre-incubated 45 min at 37°C, cultured 72 h, [3H] thymidine last 16–18 h; three independent experiments with cells from different donors. On the procedure:
as §1
Mononuclear cells (10^6/ml) were plated into 96-well microplates and pre-incubated with peptidic KV1.3 blockers for 45 min at 37°C in RPMI medium (Invitrogen) supplemented with 100 IU/ml penicillin, 0.1 mg/ml streptomycin, 2 mM L-glutamine, 1 mM sodium pyruvate, 1% non-essential amino acids, 1% RPMI vitamins, […] β-mercaptoethanol, and 1% heat-inactivated fetal bovine serum. […] [^3H] thymidine incorporation into the DNA of proliferating cells was measured using a β-scintillation counter (Beckman Coulter, Brea, CA, USA).
(In general: Incorporation of labelled thymidine or its analogues reports DNA synthesis.)

The target in assay [2] is T2, mouse KV1.3 (mKV1.3) channels stably expressed in L929 cells (Mus musculus, UniProt P16390).
T2 construct: expressed in transfected cells
Briefly: Inhibition of mKV1.3 currents, whole-cell patch clamp. Conditions: room temperature, each data point mean of 3–5 determinations. It counts as cell-based. On the procedure: as §1, §2
(Patch clamp records ionic current or voltage across a cell membrane.)

The subject of assay [3] is acid sensing ion channel 1a. Conditions: ref [49]; cited from earlier work. From the text: Recombinant production is the most cost-effective method for producing disulfide-rich peptides. The most common host for heterologous expression of venom peptides is E. coli, [47] but this often necessitates oxidative refolding of the peptides as the redox environment of the E. coli cytoplasm is not favorable for disulfide-bond formation. Higher yields of correctly folded toxin can often be obtained by exporting the peptides into periplasm of E. coli, where the cellular machinery for disulfide-bond formation is located [17]–[19]; however, the overall yield of recombi ...

For the next assay, the system named is KV1.1. Conditions: ref [22], [30], [31]; cited from earlier work. An excerpt:
We therefore measured the ability of rAgTx2 and rMgTx to block mouse KV1.3 (mKV1.3) and mouse KV1.1 (mKV1.1) channels stably expressed in L929 cells. […] The recombinant rAgTx2 and rMgTx inhibited mKV1.3 with simi ...

The next assay relates to T lymphocytes. Conditions: native toxins; ref [33], [34]; read-out: IC50 range previously described, T lymphocyte proliferation; cited from earlier work. On the procedure: We next tested the ability of each recombinant peptides to block the proliferation of freshly-isolated human T lymphocytes, which are sensitive to KV1.3 channel blockers. […] These concentrations are within the range previously described for MgTx (∼5 nM) and AgTx2 (>5 nM), [34]. Thus the biological activities of rAgTx2 and rMgTx produced in P.pastoris are similar to the native toxins.

A further assay concerns KV1.3. Conditions: cited from earlier work; for potency of native toxin on KV1.3: native toxins, ref [31]; for block of KV1.3 channels: ref [22], [30], [31]. An excerpt: Voltage-gated potassium (KV) channels are expressed in a wide range of cell types and tissues where they play key roles in physiological processes such as cell excitability, muscle contraction, and regulation of cardiac function. KV channels are composed of four α subunits that together form a functional channel. There are […] subfamilies of KV channels, with KV1.3 being one of eight subtypes in the KV1.x subfamily. […] We therefore measured the ability of rAgTx2 and rMgTx to block mouse KV1.3 (mKV1.3) and mouse KV1.1 (mKV1.1) channels stably expressed in L929 cells. […] The recombinant rAgTx2 and rMgTx inhibited mKV1.3 with simi ... || KV channels have diverse physiological functions; they play important roles in cell excitability, muscle contraction, regulation of neuronal and cardiac electrical functions, and propagation of action potentials. […] This has led to the hypothesis that compounds that selectively target KV1.3 channels could be used to treat autoimmune diseases. Consistent with this idea, ... || (+ 1 further places)

The next assay has as its system human KV1.3 channel. Conditions: by blocking the central ion-conducting pore; ref [21], [22], [43]; cited from earlier work. An excerpt: Some α-KTxs are of significant interest because they potently block the human KV1.3 channel. […] However, despite their similar 3D fold and high sequence homology, the affinity of α-KTx toxins for KV1.3 varies over six orders of magnitude from picomolar to micromolar. Moreover, many of these toxins inhibit a number of different subtypes KV channels with high affinity, an undesirable attribute for peptides being considered for therapeutic use due to the ...

Where [4] appears, read: 200-ms pulses from -80 mV to 40 mV every 30 s, Hill fit to reduction of peak current at 40 mV.

Bridge positions count the residues as written; N and C are the ends. Ends that are not written are not given here.

T2 sequence (P16390 whole entry): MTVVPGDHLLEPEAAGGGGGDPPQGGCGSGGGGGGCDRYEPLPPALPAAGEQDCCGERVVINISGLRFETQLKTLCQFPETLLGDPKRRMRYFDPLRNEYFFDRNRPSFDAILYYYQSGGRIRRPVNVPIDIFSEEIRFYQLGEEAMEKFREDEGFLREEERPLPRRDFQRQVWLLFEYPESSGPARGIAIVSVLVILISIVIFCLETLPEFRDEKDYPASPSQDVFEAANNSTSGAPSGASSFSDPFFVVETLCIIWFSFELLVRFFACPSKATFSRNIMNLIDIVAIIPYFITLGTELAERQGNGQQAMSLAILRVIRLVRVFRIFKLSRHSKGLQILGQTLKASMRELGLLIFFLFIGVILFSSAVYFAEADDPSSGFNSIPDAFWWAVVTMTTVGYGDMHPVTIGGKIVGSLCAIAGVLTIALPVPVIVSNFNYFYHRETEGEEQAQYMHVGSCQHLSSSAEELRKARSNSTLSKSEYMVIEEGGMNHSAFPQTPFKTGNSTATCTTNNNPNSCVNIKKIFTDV
T1 sequence (P16388 whole entry): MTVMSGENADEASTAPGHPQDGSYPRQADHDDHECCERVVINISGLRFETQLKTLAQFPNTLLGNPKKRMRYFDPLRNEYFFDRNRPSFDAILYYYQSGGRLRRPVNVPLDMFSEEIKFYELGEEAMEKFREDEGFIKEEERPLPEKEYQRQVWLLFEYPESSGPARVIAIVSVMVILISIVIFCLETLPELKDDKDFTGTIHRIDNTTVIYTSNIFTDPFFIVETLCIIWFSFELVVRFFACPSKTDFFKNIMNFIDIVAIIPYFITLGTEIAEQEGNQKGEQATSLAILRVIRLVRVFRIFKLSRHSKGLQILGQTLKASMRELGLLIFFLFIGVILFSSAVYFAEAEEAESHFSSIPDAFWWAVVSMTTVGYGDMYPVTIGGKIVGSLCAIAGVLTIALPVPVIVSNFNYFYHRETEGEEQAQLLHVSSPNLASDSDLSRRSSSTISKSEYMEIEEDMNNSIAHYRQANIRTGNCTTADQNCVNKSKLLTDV

Regarding `CC[C@H](C)[C@@H]1NC(=O)[C@@H]2CSSC[C@@H]3NC(=O)[C@H](CCCCN)NC(=O)[C@H](CCCNC(=N)N)NC(=O)[C@H](CC(N)=O)NC(=O)[C@H](CCSC)NC(=O)[C@H](CSSC[C@H](NC(=O)[C@H](CO)NC(=O)[C@@H](NC(=O)[C@H](CC(N)=O)NC(=O)[C@@H](NC(=O)[C@@H]4CCCN4C(=O)[C@@H](NC(=O)CNC(=O)[C@H](Cc4c[nH]cn4)NC(=O)[C@H](Cc4c[nH]cn4)NC(=O)[C@H](Cc4c[nH]cn4)NC(=O)[C@H](Cc4c[nH]cn4)NC(=O)[C@H](Cc4c[nH]cn4)NC(=O)[C@H](Cc4c[nH]cn4)NC(=O)[C@H](Cc4ccccc4)NC(=O)[C@@H](N)CCC(=O)O)C(C)C)[C@@H](C)CC)C(C)C)C(=O)N[C@@H]([C@@H](C)O)C(=O)NCC(=O)N[C@@H](CO)C(=O)N4CCC[C@H]4C(=O)N[C@@H](CCC(N)=O)C(=O)N2)NC(=O)[C@H](CCCCN)NC(=O)CNC(=O)[C@H](Cc2ccccc2)NC(=O)[C@H](CCCNC(=N)N)NC(=O)[C@H](CCSC)NC(=O)CNC(=O)[C@H](C)NC(=O)[C@H](CC(=O)O)NC(=O)[C@H](CCCCN)NC(=O)[C@H](CSSC[C@@H](C(=O)N[C@H](C(=O)N2CCC[C@H]2C(=O)N[C@@H](CCCCN)C(=O)O)[C@@H](C)O)NC(=O)[C@H](Cc2c[nH]cn2)NC3=O)NC(=O)[C@@H]2CCCN2C(=O)[C@H](CCCCN)NC1=O` [rAgTx2, recombinant agitoxin-2], the results for the IC50 (in assay [1]; with human T lymphocytes; in assay [2] (setting [4])) were 0.144 ± 0.03 nM, roughly 40 nM and 0.201 ± 0.039 nM, respectively.
Regarding “PcTx1 (EDCIPKWKGCVNRHGDCCEGLECWKRRRSFEVCVPKTPKT; ends and bridges not checked; cysteine pairing not given here; UniProt P60514 1-40, looked up)”, the “block of acid sensing ion channel 1a” value in assay [3] is listed as “potent blocker”.
As to “margatoxin (TIINVKCTSPKQCLPPCKAQFGQSAGAKCMNGKCKCYPH; UniProt P40755 1-39, looked up) [MgTx]”, the “block of KV1.1 channels” value in the assay on KV1.1 was “picomolar concentrations”. In the assay with T lymphocytes, the IC50 was roughly 5 nM. In addition, in the assay with KV1.3, the “potency of native toxin on KV1.3” value is given as 30−100 pM and the “block of KV1.3 channels” value is reported as “picomolar concentrations”. Moreover, the “inhibition of KV1.3” value in the assay with human KV1.3 channel is given as “potently inhibit KV1.3”.
With “EFHHHHHHTIINVKCTSPKQCLPPCKAQFGQSAGAACMNGKCKCYPH (disulfide 15-37, 21-42, 25-44) [rMgTx-K28A]”, the IC50 in assay [2] (K28A mutant, Hill fit to peak current at 40 mV) was 216 ± 24 nM.
“EFHHHHHHTIINVKCTSPKQCLPPCKAQFGQSAGAKCMNGKCKCYPH (disulfide 15-37, 21-42, 25-44) [rMgTx, recombinant margatoxin]”: the results for the IC50 (in assay [1]; in the assay on human T lymphocytes; in assay [2] (setting [4])) were 0.396 ± 0.041 nM, roughly 6 nM and 0.097 ± 0.003 nM, respectively.
As to “BmKTX: native peptide, parent of ADWX-1 (VGINVKCKHSGQCLKPCKDAGMRFGKCINGKCDCTPK; ends and bridges not checked; cysteine pairing not given here; UniProt Q9NII7 23-59, looked up)”, the IC50 in the assay with KV1.3 (ref [44]) is 0.15 nM.
Take agitoxin-2 [AgTx2]: the “block of KV1.1 channels” value in the assay with KV1.1 is listed as “picomolar concentrations”. In the assay on T lymphocytes, the IC50 was greater than 5 nM. Moreover, in the assay on KV1.3, the “potency of native toxin on KV1.3” value is reported as 200 pM and the “block of KV1.3 channels” value was “picomolar concentrations”. Besides, the “inhibition of KV1.3” value with human KV1.3 channel was “potently inhibit KV1.3”.
